Like-named read-outs stand apart in the source and are kept apart here. One block for each compound: values may come before it.
Legend:
[1] = test system: human hepatoma HepG2 tumor cell lines; assay: MTT antiproliferation assay, HepG2; assay type: cell-based; details: for IC50: MTT, 48 h
Protocol: (§1) The effects on tumor cell proliferation: the antiproliferative activities of α-(3,5-dimethoxy-benzylidene)-α′-hydrocarbonyl methylene cyclic ketone on human hepatoma HepG2 tumor cell lines and human cutaneous melanoma A16-F10 cell lines were evaluated using methyl thiazolyl tetrazolium (MTT) assay.
(§2) Experimental procedures are performed as follows: tumor cells in DMEM culture medium containing 10% fetal bovine serum, 100 U·mL^−1 penicillin and 100 U·mL^−1 streptomycin were cultured in an incubator under 5% CO2 and saturated humidity at 37. Test compounds were dissolved in dimethyl sulfoxide and then diluted with DMEM culture medium to the corresponding concentration, wherein the final concentration of dimethyl sulfoxide was less than 0.01%.
(§3) Negative control group, the blank control group and experimental groups were separately set up, each group with three double-wells. The negative control group was only added with cells but without the drug, the blank control group wad only added with dimethyl sulfoxide solution. The experimental group was added at each well with 11 μL solution containing different concentrations of the sample to be tested, such that the final concentration of the drug were […]. The cells were cultured for additional 48 h in a incubator with 5% CO2 at 37, subsequently the culture solution was gently sucked out and each well was added with 200 μL 0.5 mg/mL of MTT solution. The cells were cultured for another 6 h, then the MTT culture solution was sucked out and each well was added with 150 μL dimethyl sulfoxide, followed by oscillation dissolved for 10 min. The absorbance OD values in each well were measured at the measurement wavelength 570 nm and the reference wavelength 630 nm using a microplate reader.

[2] = test system: human cutaneous melanoma A16-F10 cell lines; assay: MTT antiproliferation assay, A16-F10; assay type: cell-based
Protocol: as §1, §2, §3

[3] = target: EGFR (Homo sapiens (Human), UniProt P00533); assay: EGFR kinase autophosphorylation, time-resolved fluorescence; assay type: biochemical; details: Table 1
Chain of EGFR (P00533 25-1210, species assumed): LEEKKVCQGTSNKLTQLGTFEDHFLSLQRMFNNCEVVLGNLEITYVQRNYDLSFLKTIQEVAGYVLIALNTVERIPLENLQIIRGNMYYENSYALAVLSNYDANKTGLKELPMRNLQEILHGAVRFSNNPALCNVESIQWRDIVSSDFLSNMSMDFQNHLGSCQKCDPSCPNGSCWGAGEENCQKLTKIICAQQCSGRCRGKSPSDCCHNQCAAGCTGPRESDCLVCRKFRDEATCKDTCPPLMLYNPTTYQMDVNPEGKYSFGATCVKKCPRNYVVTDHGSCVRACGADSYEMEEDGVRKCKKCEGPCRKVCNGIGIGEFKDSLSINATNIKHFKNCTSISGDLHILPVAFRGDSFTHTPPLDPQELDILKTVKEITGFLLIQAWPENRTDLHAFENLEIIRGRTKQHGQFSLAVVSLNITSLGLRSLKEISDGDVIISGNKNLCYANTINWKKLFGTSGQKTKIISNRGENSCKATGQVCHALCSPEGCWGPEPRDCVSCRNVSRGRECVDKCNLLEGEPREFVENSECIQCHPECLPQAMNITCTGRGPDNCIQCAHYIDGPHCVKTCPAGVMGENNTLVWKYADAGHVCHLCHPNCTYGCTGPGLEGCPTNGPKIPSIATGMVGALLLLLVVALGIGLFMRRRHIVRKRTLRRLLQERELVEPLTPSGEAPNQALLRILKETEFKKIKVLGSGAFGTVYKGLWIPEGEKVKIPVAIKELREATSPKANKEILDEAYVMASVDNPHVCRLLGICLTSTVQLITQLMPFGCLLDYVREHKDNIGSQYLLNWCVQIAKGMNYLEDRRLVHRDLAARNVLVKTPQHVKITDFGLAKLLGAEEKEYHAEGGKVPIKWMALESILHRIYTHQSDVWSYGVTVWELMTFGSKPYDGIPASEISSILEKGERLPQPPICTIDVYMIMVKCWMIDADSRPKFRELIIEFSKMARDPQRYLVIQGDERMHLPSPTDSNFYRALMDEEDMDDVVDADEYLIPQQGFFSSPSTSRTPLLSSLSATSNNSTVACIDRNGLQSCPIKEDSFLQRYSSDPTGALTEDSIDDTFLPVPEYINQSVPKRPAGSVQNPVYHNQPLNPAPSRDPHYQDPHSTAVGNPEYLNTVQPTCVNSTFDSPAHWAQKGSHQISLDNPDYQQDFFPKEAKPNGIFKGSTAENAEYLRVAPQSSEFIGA
Protocol: Determination of the inhibitory effect of the compound on EGFR: the kinase activity of EGFR was detected according to time-resolved fluorescence detection technology to evaluate automatic phosphorylation levels. The test compound was dissolved in 100% DMSO, diluted with 25 mM HEPES (pH=7.4) to the desired concentration, added into each well with 10 μL of the test compounds and 10 μL solution containing 5 ng EGFR, then cultured for 10 min at room temperature using the recombinase diluted by 100 mM HEPES with a dilution ratio of 1:80, subsequently added with 10 μL solution containing 20 mM HEPES, 2 mM MnCl2, 100 μM Na3VO4, 1 mM DTT buffer, and 20 μL of 0.1 mM ATP and 50 mM MgCl2 and cultured for 1 h. The positive group in each plate was added with ATP-MgCl2 enzyme, the negative control group without adding with ATP-MgCl2 enzyme, the liquid was sucked out completely after cultured for 1 h, and each well was washed with buffer for three times. The wells were added with 75 μL anti-phosphorylated tyrosine antibody containing 400 ng europium labeling and cultured 1 h, washed, then added with enhancing solution.

[4] = Homo sapiens, HepG2, Table 2, read-out: Anti-proliferative effect on HepG2 tumor cells IC50
[5] = Homo sapiens, A16-F10, Table 1, MTT, 48 h, read-out: anti-proliferation IC50 A16-F10
[6] = Homo sapiens, HepG2, Table 1, read-out: anti-proliferation IC50 Hep G2
[7] = Table 1, MTT, 48 h, read-out: anti-proliferation IC50 A16-F10
[8] = Table 1, read-out: anti-proliferation IC50 Hep G2

IC50 [1, 4]: 79.9 µM
SMILES: COc1cc(/C=C2\CC/C(=C\c3ccc(F)cc3)C2=O)cc(OC)c1 [(2E,5E)-2-(3,5-dimethoxybenzylidene)-5-(4-fluorobenzylidene)cyclopentanone]

IC50 [1, 4]: 11.3 µM
SMILES: COc1cc(/C=C2\CC/C(=C\c3ccccc3)C2=O)cc(OC)c1 [(2E,5E)-2-(3,5-dimethoxybenzylidene)-5-benzylidenecyclopentanone]
anti-proliferative effect on HepG2 tumor cell lines (in words) ([1]; comparison): significantly stronger than curcumin

IC50 [2, 5]: 4.71 µM
IC50 [1, 6]: 8.56 µM
IC50 [3]: 2.08 µM
SMILES: COc1cc(/C=C2\CCC/C(=C\c3cc(OC)cc(OC)c3)C2=O)cc(OC)c1 [(2E,6E)-2,6-bis (3,5-dimethoxybenzylidene)cyclohexanone]

IC50 [3]: 18.7 µM
SMILES: COc1ccc(/C=C2\CCC/C(=C\c3cc(OC)cc(OC)c3)C2=O)cc1 [(2E,6E)-2-(3,5-dimeth-oxybenzylidene)-6-(4-methoxybenzylidene)cyclohexanone]

melting point: 131.2 to 131.6 °C
IC50 [3]: 5.37 µM
SMILES: COc1cc(/C=C2\CCC/C(=C\c3ccc(OC)c(O)c3)C2=O)cc(OC)c1 [(2E,6E)-2-(3,5-dimethoxy-benzylidene)-6-(3-hydroxy-4-methoxybenzylidene)cyclohexanone]

IC50 [3]: 1.68 µM
SMILES: COc1cc(/C=C2\CCC/C(=C\c3ccccc3)C2=O)cc(OC)c1 [(2E,6E)-2-(3,5-dimethoxy-benzylidene)-6-benzylidene cyclohexanone]

SMILES: COc1cc(/C=C2\CCC/C(=C\c3ccccc3Br)C2=O)cc(OC)c1 [(2E,6E)-2-(3,5-dimethoxybenzyl-idene)-6-(2-bromobenzylidene)cyclohexanone]
IC50 [2, 7]: 12.4 µM
IC50 [1, 8]: 32.2 µM
IC50 [3]: 8.08 µM

SMILES: COc1cc(/C=C2\CCC/C(=C\c3ccccc3Cl)C2=O)cc(OC)c1 [(2E,6E)-2-(3,5-dimethoxybenzyl-idene)-6-(2-chlorobenzylidene)cyclohexanone]
IC50 [3]: 1.54 µM

SMILES: COc1cc(/C=C2\CCC/C(=C\c3ccccc3OC)C2=O)cc(OC)c1 [(2E,6E)-2-(3,5-dimethoxybenzyl-idene)-6-(2-methoxybenzylidene)cyclohexanone]
IC50 [2, 7]: > 200 µM
IC50 [1, 8]: > 200 µM

SMILES: COc1cc(/C=C2\CCC/C(=C\c3cccc(Cl)c3)C2=O)cc(OC)c1 [(2E,6E)-2-(3,5-dimethoxybenzyl-idene)-6-(3-chlorobenzylidene)cyclohexanone]
IC50 [3]: 2.27 µM

SMILES: COc1cccc(/C=C2\CCC/C(=C\c3cc(OC)cc(OC)c3)C2=O)c1 [(2E,6E)-2-(3,5-dimethoxybenzyl-idene)-6-(3-methoxybenzylidene)cyclohexanone]
IC50 [3]: 6.13 µM

SMILES: COc1cc(/C=C2\CCC/C(=C\c3ccc(Br)cc3)C2=O)cc(OC)c1 [(2E,6E)-2-(3,5-dimethoxybenzyl-idene)-6-(4-bromophenyl-methylene)cyclohexanone]
IC50 [3]: 7.12 µM

SMILES: COc1cc(/C=C2\CCC/C(=C\c3ccc(Cl)cc3)C2=O)cc(OC)c1 [(2E,6E)-2-(3,5-dimethoxybenzyl-idene)-6-(4-chlorobenzylidene)cyclohexanone]
IC50 [2, 7]: 18.4 µM
IC50 [1, 8]: 25.5 µM
IC50 [3]: 15.3 µM

SMILES: COc1cc(/C=C2\CCC/C(=C\c3ccc(N(C)C)cc3)C2=O)cc(OC)c1 [(2E,6E)-2-(3,5-dimethoxybenzyl-idene)-6-(4-dimethylaminobenzylidene)cyclohexanone]
IC50 [2, 7]: 5.84 µM
IC50 [1, 8]: 11.8 µM
IC50 [3]: 3.98 µM

SMILES: COc1cc(/C=C2\CCC/C(=C\c3ccc(F)cc3)C2=O)cc(OC)c1 [(2E,6E)-2-(3,5-dimethoxybenzyl-idene)-6-(4-fluorobenzylidene)cyclohexanone]
IC50 [2, 7]: 7.63 µM
IC50 [1, 8]: 12.1 µM
IC50 [3]: 5.69 µM

SMILES: COc1cc(/C=C2\CCC/C(=C\c3ccc(S(C)(=O)=O)cc3)C2=O)cc(OC)c1 [(2E,6E)-2-(3,5-dimethoxybenzyl-idene)-6-(4-methylsulphonylbenzylidene)cyclohexanone]
IC50 [3]: 1.96 µM

SMILES: COc1cc(/C=C2\CCC/C(=C\C3CCCCC3)C2=O)cc(OC)c1 [(2E,6E)-2-(3,5-dimethoxybenzyl-idene)-6-(cyclohexylmethylene)cyclohexanone]
IC50 [2, 7]: 12.2 µM
IC50 [1, 8]: 17.2 µM
IC50 [3]: 7.52 µM

IC50 [2, 5]: 5.64 µM
IC50 [1, 6]: 7.53 µM
IC50 [3]: 2.17 µM
SMILES: COc1cc(/C=C2\CCC/C(=C\c3ccccc3F)C2=O)cc(OC)c1 [(2E,6E)-2-(3,5-dimethoxybenzylidene)-6-(2-fluorobenzylidene)cyclohexanone]

IC50 [2, 5]: 0.71 µM
IC50 ([2]; Homo sapiens, A16-F10, cell line not given, read-out: anti-tumor activity IC50): < 1 µM
IC50 [1, 6]: 1.01 µM
IC50 [3]: 0.43 µM
SMILES: COc1cc(/C=C2\CCC/C(=C\c3ccc(O)c(O)c3)C2=O)cc(OC)c1 [(2E,6E)-2-(3,5-dimethoxybenzylidene)-6-(3,4-dihydroxybenzylidene)cyclohexanone]

IC50 [3]: 4.81 µM
SMILES: COc1cc(/C=C2\CCC/C(=C\c3cc(C(C)(C)C)c(O)c(C(C)(C)C)c3)C2=O)cc(OC)c1 [(2E,6E)-2-(3,5-dimethoxybenzylidene)-6-(3,5-di-t-butyl-4-hydroxybenzylidene)cyclohexanone]

IC50 [3]: 6.85 µM
SMILES: COc1cc(/C=C2\CCC/C(=C\c3cccc(Br)c3)C2=O)cc(OC)c1 [(2E,6E)-2-(3,5-dimethoxybenzylidene)-6-(3-bromobenzylidene)cyclohexanone]

IC50 [3]: 4.66 µM
SMILES: COc1cc(/C=C2\CCC/C(=C\c3ccc(O)cc3)C2=O)cc(OC)c1 [(2E,6E)-2-(3,5-dimethoxybenzylidene)-6-(4-hydroxybenzylidene)cyclohexanone]

IC50 [2, 5]: 18.7 µM
SMILES: COc1cc(/C=C/C(=O)CC(=O)/C=C/c2ccc(O)c(OC)c2)ccc1O [curcumin, reference compound]

IC50 [2, 5]: 0.2 µM
SMILES: C#Cc1cccc(Nc2ncnc3cc(OCCOC)c(OCCOC)cc23)c1 [erlotinib, reference compound]
